Laboratory results reported in patent US6197959A, “Piperidine derivatives” (Hoffmann-La Roche Inc., priority 1999, dated 2001).

Target: T1, human renin (Homo sapiens, UniProt P00797)
T1 sequence (P00797 67-406): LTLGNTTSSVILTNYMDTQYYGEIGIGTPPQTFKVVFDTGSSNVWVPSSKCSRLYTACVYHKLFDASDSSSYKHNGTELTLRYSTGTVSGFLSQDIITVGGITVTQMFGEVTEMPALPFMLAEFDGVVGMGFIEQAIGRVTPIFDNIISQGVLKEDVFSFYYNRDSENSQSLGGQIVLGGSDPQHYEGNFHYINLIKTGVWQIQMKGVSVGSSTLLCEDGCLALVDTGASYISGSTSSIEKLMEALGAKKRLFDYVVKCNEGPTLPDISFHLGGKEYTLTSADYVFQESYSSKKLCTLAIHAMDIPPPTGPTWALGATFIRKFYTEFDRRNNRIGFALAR
Test: In vitro Test With Pure Human Renin
Type: biochemical
Conditions: human tetradecapeptide substrate, pH 7.4, 3 h at 37° C., angiotensin I by RIA
Experimental: The tests can be carried out in analogy to those described by D. T. Pals et al. in Hypertension Vol. 8, 1105-1112 (1986) or J. Boger et al. in J. Med. Chem. 28, 1779-1790 (1985) or […] et al. in J. Med. Chem. 30, 2137-2144 (1987) or T. Kokubu et al. in Biochem. Biophys. Res. Commun. 118, 929-993 (1984): In vitro Test With Pure Human Renin The test is carried out in Eppendorf test tubes. The incubation mixture consists of (1) 100 μl of human renin in buffer A (0.1 M sodium phosphate solution, pH 7.4, containing 0.1% bovine serum albumin, 0.1% sodium aside and 1 mM ethylenediaminetetraacetic acid), sufficient for a renin activity of 2-3 ng of angiotensin I/ml/hr.; (2) 145 μl of buffer A: (3) 30 μl of 10 mM human tetradecapeptide renin substrate (hTD) in 10 mM hydrochloric acid: (4) 15 μl of dimethyl sulphoxide with or without inhibitor and (5) 10 μl of a 0.03 molar solution of hydroxyquinoline sulphate in water. The samples are incubated for three hours at 37° C. and, respectively, 4° C. in triplicate. 2×100 μl samples per test tube are used in order to measure the production of angiotensin I via RIA (standard radioimmunoassay; clinical assay solid phase kit). Cross reactivities of the antibody used in the RIA are: angiotensin I 100%; angiotensin II 0.0013%; hTD (angiotensin […]-OH) 0.09%. The production of angiotensin I is determined by the difference between the test at 37° C. and that at 4° C. The following controls are carried out: (a) Incubation of hTD samples without renin and without inhibitor at 37° C. and 4° C. The difference between these two values gives the base value of the angiotensin I production. (b) Incubation of hTD samples with renin, but without inhibitor at 37° C. and 4° C. The difference between these values gives the maximum value of the angiotensin I production. In each sample the base value of the angiotensin I production is subtracted from the angiotensin I production which is determined. […] The IC50 values are determined from a linear regression curve from a logit-log plot.

IC50 | Structure (SMILES)
0.02 nM | COC(=O)CN1CCCc2ccc(CO[C@H]3CNCC[C@@H]3c3ccc(OCCCOCc4ccccc4OC)cc3)cc21 [D, (3R,4R)-[7-(4-[4-[3-(2-methoxy-benzyloxy)-propoxy]-phenyl]-piperidin-3-yloxymethyl)-3,4-dihydro-2H-quinolin-1-yl]-acetic acid methyl ester]
0.09 nM | COc1ccccc1COCCCOc1ccc([C@H]2CCNC[C@@H]2OCc2ccc3c(c2)N(CCNC(N)=O)CCC3)cc1 [J]
0.08 nM | COc1ccccc1COCCCOc1ccc([C@H]2CCNC[C@@H]2OCc2ccc3c(c2)N(CCCO)CCC3)cc1 [C, (3R,4R)-3-[7-[4-[4-[3-(2-methoxy-benzyloxy)-propoxy]-phenyl]-piperidin-3-yloxymethyl]-3,4-dihydro-2H-quinolin-1-yl]-propan-1-ol]
0.05 nM | CCOC(=O)CN1CCCc2ccc(CO[C@H]3CNCC[C@@H]3c3ccc(OCCCOCc4ccccc4OC)cc3)cc21 [B, (3R,4R)-[7-(4-[4-[3-(2-methoxy-benzyloxy)-propoxy]-phenyl]-piperidin-3-yloxymethyl)-3,4-dihydro-2H-quinolin-1-yl]-acetic acid ethyl ester]
0.05 nM | COCCCN1CCCc2ccc(CO[C@H]3CNCC[C@@H]3c3ccc(OCCCOCc4ccccc4OC)cc3)cc21 [F, (3R,4R)-7-[4-[4-[3-(2-methoxy-benzyloxy)-propoxy]-phenyl]-piperidin-3-yloxymethyl)-1-(3-methoxy-propyl]-1,2,3,4-tetrahydro-quinoline]

More lines, now with the values behind:

Structure (SMILES) | IC50
COc1ccccc1COCCCOc1ccc([C@H]2CCNC[C@@H]2OCc2ccc3c(c2)N(CC#N)CCC3)cc1 [G, (3R,4R)-[7-(4-[4-[3-(2-methoxy-benzyloxy)-propoxy]-phenyl]-piperidin-3-yloxymethyl)-3,4-dihydro-2H-quinolin-1-yl]-acetonitrile] | 0.07 nM
COc1ccccc1COCCCOc1ccc([C@H]2CCNC[C@@H]2OCc2ccc3c(c2)N(CCNC(C)=O)CCC3)cc1 [A, (3R,4R)-N-[2-[7-[4-[4-[3-(2-methoxy-benzyloxy)-propoxy]-phenyl]-piperidin-3-yloxymethyl]-3,4-dihydro-2H-quinolin-1-yl]-ethyl]-acetamide] | 0.05 nM
COc1ccccc1COCCCOc1ccc([C@H]2CCNC[C@@H]2OCc2ccc3c(c2)N(CCNS(C)(=O)=O)CCC3)cc1 [H, (3R,4R)-N-[2-[7-[4-[4-[3-(2-methoxy-benzyloxy)-propoxy]-phenyl]-piperidin-3-yloxymethyl]-3,4-dihydro-2H-quinolin-1-yl]-ethyl]-methanesulfonamide] | 0.07 nM
COC(=O)CCN1CCCc2ccc(COC3CNCC[C@@H]3c3ccc(OCCCOCc4ccccc4OC)cc3)cc21 (mixture of isomers) [E, (3RS,4R)-3-[7-(4-[4-[3-(2-methoxy-benzyloxy)-propoxy]-phenyl]-piperidin-3-yloxymethyl)-3,4-dihydro-2H-quinolin-1-yl]-propionic acid methyl ester] | 0.04 nM
COc1ccccc1COCCCOc1ccc([C@H]2CCNC[C@@H]2OCc2ccc3c(c2)N(CCNC(=O)C(F)(F)F)CCC3)cc1 [K, (3R,4R)-2,2,2-trifluoro-N-[2-[7-[4-[4-[3-(2-methoxy-benzyloxy)-propoxy]-phenyl]-piperidin-3-yloxymethyl]-3,4-dihydro-2H-quinolin-1-yl]-ethyl]-acetamide] | 0.05 nM
COc1ccccc1COCCCOc1ccc([C@H]2CCNC[C@@H]2OCc2ccc3c(c2)N(CCNS(N)(=O)=O)CCC3)cc1 [Compound I, (3R,4R)-N-[2-[7-[4-[4-[3-(2-methoxy-benzyloxy)-propoxy]-phenyl]-piperidin-3-yloxymethyl]-3,4-dihydro-2H-quinolin-1-yl]-ethyl]-sulfamide] | 0.06 nM
